Assays:
[1] = test system: estrogen-primed endometrium of immature rabbits; test: McPhail assay, estrogen-primed rabbit endometrium; type: in vivo; conditions: for Score 2 for PR-agonistic activity / Score 2 for PR-antagonistic activity: dose giving McPhail score 2; for Score 2 for PR-antagonistic activity: concomitant progesterone (1 g/animal/day [sic] s.c.)
Description: The secretory transformation of estrogen-primed endometrium of immature rabbits indicates the strength of the progestagenic action on the endometrium of the chosen test compound. The simultaneous administration of test compounds with progesterone can indicate potential anti-progestagenic actions.
Female rabbits received daily s.c. injections of 5.0 µg 17β-Estradiol/per animal for 6 days leading to the proliferation of the endometrium. From day 7 to day 13 the animals received doses of vehicle, EC313 (1 to 30 mg/animal/day s.c) or progesterone. On day 14, the animals were sacrificed and the uteri were processed for histological evaluation and the secretory endometrial transformation was rated according to a modified McPhail score (1 – 4).
The rating scale ranges from 1 (no or very low secretory, transformation, or agonistic activity) to 4 (highest secretory, transformation, or agonistic activity). The McPhail score of 2 (median) was selected for the comparison. The antagonistic activity was measured by the concomitant administration of progesterone ([…] s.c.).

T47D cells = test: Proliferation / arrest in Go/G1 in T47D cells; type: cell-based, human; parameters: key to Arrest in Go/G1: ↓/↑ - decreased/increased action of tested compounds.; ↓/↑ - decreased/increased action of tested compounds; conditions: Proliferation; T47D cells; statistical significance not always reached
GR = target: T1, GR (Homo sapiens, UniProt P04150); test: GR transactivation (HELA, MMTV-LUC); type: cell-based; parameters: HELA cells line carrying endogenous glucocorticoid protein; endogenous in cells; host or cells: HELA, stably transfected with the reporter only; conditions: comparative transactivation profile; read-out: Potency, GR Antagonism
T1 sequence (P04150 1-777): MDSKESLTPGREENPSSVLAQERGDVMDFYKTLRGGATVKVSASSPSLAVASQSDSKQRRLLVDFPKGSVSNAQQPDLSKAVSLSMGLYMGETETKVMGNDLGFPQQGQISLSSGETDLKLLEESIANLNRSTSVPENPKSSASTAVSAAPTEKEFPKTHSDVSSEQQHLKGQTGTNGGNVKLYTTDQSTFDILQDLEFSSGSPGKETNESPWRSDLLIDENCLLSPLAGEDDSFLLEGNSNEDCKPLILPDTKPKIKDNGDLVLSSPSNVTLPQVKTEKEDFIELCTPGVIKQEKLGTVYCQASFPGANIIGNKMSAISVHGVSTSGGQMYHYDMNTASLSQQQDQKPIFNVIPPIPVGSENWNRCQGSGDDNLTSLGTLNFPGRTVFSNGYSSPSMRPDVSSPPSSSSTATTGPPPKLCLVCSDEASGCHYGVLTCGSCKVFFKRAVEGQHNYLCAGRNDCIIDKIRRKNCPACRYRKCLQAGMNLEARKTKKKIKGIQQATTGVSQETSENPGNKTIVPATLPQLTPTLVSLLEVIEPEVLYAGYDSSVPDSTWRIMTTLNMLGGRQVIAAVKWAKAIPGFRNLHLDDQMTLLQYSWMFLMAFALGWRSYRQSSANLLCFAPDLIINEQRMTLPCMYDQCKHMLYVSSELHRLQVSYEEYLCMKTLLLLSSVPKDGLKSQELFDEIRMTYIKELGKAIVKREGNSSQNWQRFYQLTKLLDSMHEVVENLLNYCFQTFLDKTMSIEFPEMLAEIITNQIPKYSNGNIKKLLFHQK
Description: HELA cells line carrying endogenous glucocorticoid protein were cultured in order to study gene expression on the transcriptional level under the influence of the tested compounds. The cells were transfected with reporter vector MMTV/LUC. To produce high protein overexpression, stable transfection was carried out. […] Agonist and antagonist properties of EC313 toward tested receptor GR were analyzed using luminescence detection.
In order to develop the transfection assay, plasmids were generated and isolated. Vector pGL4.36 coding the glucocorticoid receptor responsive element MMTV and firefly luciferase reporter vector [luc2P/Hygro] were used as a reporter system (pGL4.36-MMTV/LUC). The cells were transfected with reporter vector MMTV/LUC.
stable transfection with reporter vector was performed on a 6-well plate (0.5x10^6 cells per well) in culture medium (EMEM, 10% FBS, NEAA, sodium […], L-glutamine). Briefly, according to the transfection procedure, cells were passaged, and they grew in a culture medium containing an appropriate concentration of the antibiotic (Hygromycin 150 µg/mL). Resistance to Hygromycin gene, which had been transfected together with the reporter vector to the cells, only allowed positively transfected cells to grow in this medium. Therefore, growing cell clones were selected for further steps as stable transfectants.
After 24h incubation of cells with the tested compounds, luciferase activity was measured using VICTOR™ X Multilabel Plate Reader -Perkin Elmer.

PR-B – NCoR = target: T2, PR-B – NCoR (Homo sapiens, UniProt P06401); test: PR-B – NCoR interaction, two-hybrid system; type: cell-based
T2 construct: expressed in transfected cells
Excerpt: The active recruitment of the nuclear corepressor NCoR results in transcriptional inactivity of the PR. So, the potency of PR ligands to induce the interaction of PR with NCoR provides information on the antagonistic potency of the ligand. Therefore, the capacity of EC313 to induce the interaction of PR-B with the corepressor NCoR in comparison with reference ligands was studied. All test compounds except the receptor agonist Promegestone induced PR to interact with NCoR.
Figure 11 (A) PR-B interaction with NCoR using a two-hybrid assay. Dose response curve. […] (B) Liganded PR-Binteraction with c-SRC kinase. The data presented are from five independent experiments. Signals are represented as mean luminescence ± SD normalized to maximal promegestone activity equal to 100%.

Cyclin D1 promotor = test: Activation of Cyclin D1 promotor; type: cell-based, human; conditions: Other signal cascades
cycling guinea pigs = test: Ovulation inhibition in cycling guinea pigs; type: in vivo, guinea pig; conditions: cycle days 10-17
Description: Test compounds were administered once daily from cycle days 10-17 by s. c. injection using 0.2 mL vehicle (benzyl-benzoate/castor oil, ratio 1 + 4 v/v). The time of autopsy (day 18) was 24-48h after the expected ovulation at the end of the treatment cycle. This design permits the study of the effects of the tested compounds on the expected ovulation. Fresh CL were evidence of a recent ovulation.

T2 sequence (P06401 whole entry): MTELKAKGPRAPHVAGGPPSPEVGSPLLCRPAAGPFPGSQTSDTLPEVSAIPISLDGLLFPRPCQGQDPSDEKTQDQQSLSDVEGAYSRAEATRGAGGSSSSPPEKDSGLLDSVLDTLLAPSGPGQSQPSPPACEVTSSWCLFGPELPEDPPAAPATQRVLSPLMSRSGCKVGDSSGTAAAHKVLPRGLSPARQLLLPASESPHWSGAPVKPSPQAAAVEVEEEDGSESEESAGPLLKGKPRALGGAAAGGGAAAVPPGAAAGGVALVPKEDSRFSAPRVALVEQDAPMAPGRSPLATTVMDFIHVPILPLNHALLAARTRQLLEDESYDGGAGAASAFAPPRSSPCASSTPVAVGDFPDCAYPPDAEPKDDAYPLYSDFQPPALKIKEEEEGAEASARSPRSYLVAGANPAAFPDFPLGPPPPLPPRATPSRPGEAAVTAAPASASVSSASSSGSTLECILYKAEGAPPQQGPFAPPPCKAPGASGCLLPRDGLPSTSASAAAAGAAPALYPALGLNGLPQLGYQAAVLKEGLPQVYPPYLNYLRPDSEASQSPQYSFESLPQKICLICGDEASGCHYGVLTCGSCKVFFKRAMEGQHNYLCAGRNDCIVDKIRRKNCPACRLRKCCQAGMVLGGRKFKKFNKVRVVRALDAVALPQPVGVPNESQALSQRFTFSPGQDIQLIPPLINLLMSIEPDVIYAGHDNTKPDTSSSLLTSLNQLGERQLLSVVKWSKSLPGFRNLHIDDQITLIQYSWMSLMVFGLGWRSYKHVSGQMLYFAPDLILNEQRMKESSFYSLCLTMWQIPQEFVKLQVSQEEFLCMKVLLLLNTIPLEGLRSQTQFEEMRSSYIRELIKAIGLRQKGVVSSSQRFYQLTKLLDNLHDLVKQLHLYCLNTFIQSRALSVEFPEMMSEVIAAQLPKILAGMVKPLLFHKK
T2 sequence (O75376 whole entry partner): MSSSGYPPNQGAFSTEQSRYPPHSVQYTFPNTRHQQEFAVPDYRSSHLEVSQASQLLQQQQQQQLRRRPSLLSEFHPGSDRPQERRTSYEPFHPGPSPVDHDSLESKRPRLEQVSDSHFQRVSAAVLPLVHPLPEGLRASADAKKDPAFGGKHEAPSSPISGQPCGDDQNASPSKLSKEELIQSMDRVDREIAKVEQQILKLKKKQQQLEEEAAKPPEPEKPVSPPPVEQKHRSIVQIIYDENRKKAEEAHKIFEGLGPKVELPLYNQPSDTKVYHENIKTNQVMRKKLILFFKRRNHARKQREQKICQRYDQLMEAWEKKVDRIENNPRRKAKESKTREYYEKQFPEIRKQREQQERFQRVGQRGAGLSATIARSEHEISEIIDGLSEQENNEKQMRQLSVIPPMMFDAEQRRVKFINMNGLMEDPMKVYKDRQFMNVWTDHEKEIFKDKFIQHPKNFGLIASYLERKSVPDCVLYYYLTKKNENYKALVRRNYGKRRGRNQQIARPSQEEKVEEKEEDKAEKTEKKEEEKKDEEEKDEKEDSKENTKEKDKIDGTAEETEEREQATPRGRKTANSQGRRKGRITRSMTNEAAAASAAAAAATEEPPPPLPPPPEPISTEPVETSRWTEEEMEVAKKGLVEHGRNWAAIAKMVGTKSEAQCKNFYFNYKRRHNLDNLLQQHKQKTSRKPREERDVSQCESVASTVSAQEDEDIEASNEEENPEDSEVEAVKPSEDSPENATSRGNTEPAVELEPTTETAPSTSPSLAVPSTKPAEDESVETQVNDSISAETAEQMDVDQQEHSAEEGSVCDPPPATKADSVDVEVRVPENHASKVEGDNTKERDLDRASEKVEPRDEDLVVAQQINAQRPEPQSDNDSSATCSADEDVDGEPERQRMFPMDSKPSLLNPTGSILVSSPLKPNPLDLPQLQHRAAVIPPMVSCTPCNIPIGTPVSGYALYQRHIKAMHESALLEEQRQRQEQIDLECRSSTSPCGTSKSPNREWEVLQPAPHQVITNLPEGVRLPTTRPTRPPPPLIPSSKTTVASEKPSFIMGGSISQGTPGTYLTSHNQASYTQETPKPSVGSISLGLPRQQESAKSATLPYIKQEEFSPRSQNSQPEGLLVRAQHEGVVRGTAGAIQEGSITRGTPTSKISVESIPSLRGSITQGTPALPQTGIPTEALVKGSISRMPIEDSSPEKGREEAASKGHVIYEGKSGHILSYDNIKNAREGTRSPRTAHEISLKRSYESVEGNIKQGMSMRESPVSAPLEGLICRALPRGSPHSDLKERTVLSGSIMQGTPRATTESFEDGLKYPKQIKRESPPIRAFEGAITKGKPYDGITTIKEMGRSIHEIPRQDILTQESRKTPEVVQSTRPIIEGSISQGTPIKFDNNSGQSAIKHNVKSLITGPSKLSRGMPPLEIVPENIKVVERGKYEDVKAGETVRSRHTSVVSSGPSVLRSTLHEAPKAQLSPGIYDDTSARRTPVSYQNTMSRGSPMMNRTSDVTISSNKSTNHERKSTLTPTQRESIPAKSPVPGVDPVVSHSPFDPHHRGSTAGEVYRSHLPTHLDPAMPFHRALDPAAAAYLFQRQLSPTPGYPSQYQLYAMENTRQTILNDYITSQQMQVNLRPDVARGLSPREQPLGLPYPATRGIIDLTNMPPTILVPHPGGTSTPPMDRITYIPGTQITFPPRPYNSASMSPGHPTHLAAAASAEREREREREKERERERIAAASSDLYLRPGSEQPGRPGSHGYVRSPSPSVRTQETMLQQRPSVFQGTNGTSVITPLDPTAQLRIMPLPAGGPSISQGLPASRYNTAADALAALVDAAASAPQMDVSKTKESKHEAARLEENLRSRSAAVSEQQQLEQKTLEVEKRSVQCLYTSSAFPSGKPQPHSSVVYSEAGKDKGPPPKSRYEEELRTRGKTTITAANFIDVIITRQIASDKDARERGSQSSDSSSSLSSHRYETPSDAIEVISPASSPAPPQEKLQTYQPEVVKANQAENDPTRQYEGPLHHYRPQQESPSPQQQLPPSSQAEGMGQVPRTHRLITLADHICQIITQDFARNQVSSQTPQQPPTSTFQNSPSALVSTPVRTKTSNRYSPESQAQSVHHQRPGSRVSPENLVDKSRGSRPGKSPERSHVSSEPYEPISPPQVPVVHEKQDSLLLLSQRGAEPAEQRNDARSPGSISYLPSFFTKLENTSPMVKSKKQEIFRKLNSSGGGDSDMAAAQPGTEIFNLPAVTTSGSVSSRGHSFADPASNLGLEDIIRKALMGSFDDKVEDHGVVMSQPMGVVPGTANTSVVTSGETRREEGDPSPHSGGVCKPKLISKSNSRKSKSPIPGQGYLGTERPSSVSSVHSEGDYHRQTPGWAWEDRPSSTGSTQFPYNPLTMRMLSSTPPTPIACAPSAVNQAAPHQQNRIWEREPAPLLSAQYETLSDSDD

COC[C@]1(OC)CC[C@H]2[C@@H]3CCC4=CC(=O)CCC4=C3[C@@H](c3ccc(/C=N/O)cc3)C[C@@]21C [Asoprisnil, reference compound]
Quotient between antagonistic and agonistic action ([1]; McPhail score 2 doses): ~ 1.5
Score 2 for PR-agonistic activity [1]: ~ 0.2 mg/animal/day s.c.
Score 2 for PR-antagonistic activity [1]: ~ 0.3 mg/animal/day s.c.
Arrest in Go/G1 (T47D cells): ↑
IC50 (GR): 1230 nM
efficacy relative to Ulipristal acetate, NCoR interaction (PR-B – NCoR): 56%
induction of PR interaction with NCoR (PR-B – NCoR): limited ability to induce progesterone receptor interaction with NCoR

C[C@]12C[C@H](c3ccc(-n4ccnc4)cc3)C3=C4CCC(=O)C=C4CCC3C1CC[C@@]2(O)C(F)(F)C(F)(F)F (stereo partly shown) [EC317]
Arrest in Go/G1 (T47D cells): ↑
Activation of Cyclin D1 promotor (Cyclin D1 promotor): unclear*
Number of ovulations vs. number of inseminated females (cycling guinea pigs; 0.1 mg/animal/day s.c.): 2/3
Number of ovulations vs. number of inseminated females (cycling guinea pigs; 0.3 mg/animal/day s.c.): 3/3
Number of ovulations vs. number of inseminated females (cycling guinea pigs; 1.0 mg/animal/day s.c.): 0/3
Number of ovulations vs. number of inseminated females (cycling guinea pigs; 3.0 mg/animal/day s.c.): 0/6
Number of ovulations vs. number of inseminated females (cycling guinea pigs; 10.0 mg/animal/day s.c.): 0/6

CC#C[C@]1(O)CC[C@H]2[C@@H]3CCC4=CC(=O)CCC4=C3[C@@H](c3ccc(N(C)C)cc3)C[C@@]21C [Mifepristone, reference compound]
Arrest in Go/G1 (T47D cells): ↑
Number of ovulations vs. number of inseminated females (cycling guinea pigs; 1.0 mg/animal/day s.c.): 4/5
Number of ovulations vs. number of inseminated females (cycling guinea pigs; 3.0 mg/animal/day s.c.): 2/5
Number of ovulations vs. number of inseminated females (cycling guinea pigs; 10.0 mg/animal/day s.c.): 0/3

CC(=O)[C@H]1CC[C@H]2[C@@H]3CCC4=CC(=O)CC[C@]4(C)[C@H]3CC[C@]12C [Progesterone]
Score 2 for PR-agonistic activity [1]: ~ 0.1 mg/animal/day s.c.
Score 2 for PR-antagonistic activity [1]: n.a. “pure” agonist

CCC(=O)[C@@]1(C)CC[C@H]2[C@@H]3CCC4=CC(=O)CCC4=C3CC[C@@]21C [Promegestone, reference compound]
Arrest in Go/G1 (T47D cells): ↓
induction of PR interaction with NCoR (PR-B – NCoR): does not induce NCoR interaction

C[C@]12C[C@H](c3ccc(S(C)(=O)=O)cc3)C3=C4CCC(=O)C=C4CC[C@H]3[C@@H]1CC[C@@]2(O)C(F)(F)C(F)(F)F [Vilaprisan, reference compound]
Score 2 for PR-agonistic activity [1]: n.a.;”pure” antagonist
Score 2 for PR-antagonistic activity [1]: < 0.3 mg/animal/day s.c.
IC50 (GR): 629 nM
Number of ovulations vs. number of inseminated females (cycling guinea pigs; 3.0 mg/animal/day s.c.): 0/5
Number of ovulations vs. number of inseminated females (cycling guinea pigs; 10.0 mg/animal/day s.c.): 0/4

Telapristone acetate [CDB 4124 Telapristone acetate, reference compound]
Number of ovulations vs. number of inseminated females (cycling guinea pigs; 10.0 mg/animal/day s.c.): 1/3
